What was measured:
[1] = Single dose AR-42 plasma and tissue pharmacokinetics in mouse; assay type: in vivo; conditions: for Plasma exposure: tumor-free mice
Protocol: FIG. 1A is a graph showing results of a single dose AR-42 plasma and tissue pharmacokinetic study. Tumor-free […] mice were administered a single dose of 10 mg/kg, 20 mg/kg or 50 mg/kg AR-42 (n=3) and plasma (dashed) and gastrocnemius (solid) tissue analyzed for AR-42 content at different times using LC-MS/MS analyses according to Materials and Methods (Mean±SD). FIG. 1B is a graph showing AR-42 dose-response. Starting six days after C-26 cell injection, animals received vehicle or AR-42 orally at 10 or 20 mg/kg daily or 50 mg/kg every other day for 13 days (n=4-6). Day 18 bodyweights compared to Day 0, corrected for tumor mass according to the Materials and Methods. Bars represent mean±SD. *p<0.05, ****p<0.0001 versus tumor-bearing vehicle-treated controls, Tukey's multiple comparison test. FIG. 1C is a table showing AR-42's in vitro human HDAC inhibition profile determined using recombinant enzymatic assays. […] Longitudinal mean bodyweights per treatment group are presented as a percent change from pre-study body weights. Tumor-free animals (circles), tumor-bearing animals (bars). Inset: terminal tumor volumes (mean+SD, n=5-6 per group).
Pharmacokinetic studies were performed as previously described (Cheng H et al. AAPS J. 2016 18(3):737-45).
Pharmacokinetic studies were performed as previously described (Cheng H, et al. AAPS J. 2016 18(3):737-45) with the following modifications. Seven week-old, male, tumor-free CD2F1 mice (n=3 per dose and time point) were administered single oral doses of 10, 20 and 50 mg/kg AR-42 and then sacrificed 0.25, 4 and 24 hours later. Fifty mg of gastrocnemius muscle tissue was flash frozen in 2 mL Beadblaster™ 24 (MIDSCl; St. Louis, Mo.) tubes and stored at −80° C. Samples were homogenized for 6-cycles using a Beadblaster 24 with analytical standards in 1 mL methanol and then centrifuged at 13,000 rpm (4° C.) for 10 min. Supernatants were transferred to glass tubes, dried under nitrogen, then reconstituted in 200 μL 40% methanol/0.1% formic acid. Plasma preparation and LC-MS/MS analyses were performed as previously described (Sborov D W, et al. Leuk Lymphoma 2017 58(10):2310-8). Mouse plasma and muscle pharmacokinetic parameters were estimated as previously described with the exception of Cavg which was calculated as AUCall/[Dosing Interval(h)].

C-26 tumor-bearing mice = conditions: AR-42 50 mg/kg, Tseng et al. 2015, cited from earlier work

CC(C)[C@H](C(=O)Nc1ccc(C(=O)NO)cc1)c1ccccc1 [AR-42, (S)—N-hydroxy-4-(3-methyl-2-phenylbutanamido)benzamide]
concentration at 4 h ([1]; male, mouse, in vivo, single oral dose 10 mg/kg, remained above for 4 hours, read-out: gastrocnemius muscle concentrations): > 700 nM | mouse plasma exposure at 50 mg/kg relative to well tolerated plasma exposure in humans ([1]; oral 50 mg/kg in mice versus 8.5 μM*h in humans): 8.7 fold | Plasma exposure ([1]; single oral dose 10 mg/kg): 10.9 µM·h | Plasma exposure ([1]; single oral dose 50 mg/kg): 74.3 µM·h | effect on adipose (C-26 tumor-bearing mice): adipose-sparing effect | serum IL-6 levels and gastrocnemius IL-6 receptor mRNA abundance (C-26 tumor-bearing mice; tumor-bearing mice): reduced serum IL-6 levels, as well as gastrocnemius IL-6 receptor mRNA abundance

Source: patent US11529323B2 (priority 2017, dated 2022)
